Earlier results in Sander's compilation of Henry's law constants (doi:10.1021/je0497045).

Assay: Henry solubility constant Hcp at 298.15 K (mol/(m3 Pa))
Conditions: reference: Plyasunova et al. (2004); cited value

| Structure (SMILES) | Henry solubility constant Hcp |
| --- | --- |
| CC(C)CCS [3-methyl-1-butanethiol] | 0.00095 |
| S=C=S [carbon disulfide] | 0.00055 |
| CC(C)(C)S [2-methyl-2-propanethiol] | 0.00045 |
| CCCS [1-propanethiol] | 0.0017 |
| CSC [dimethyl sulfide] | 0.0053 |
| CS [methanethiol] | 0.0028 |
| CCCCS [1-butanethiol] | 0.0014 |
| CCCSSCCC [dipropyl disulfide] | 0.0022 |
| CSSSC [2,3,4-trithiapentane] | 0.012 |
| CCCCCCCS [1-heptanethiol] | 0.00042 |
| CCCSC [methyl propyl sulfide] | 0.0043 |
| CCC(C)S (centres undefined) [2-butanethiol] | 0.0013 |
| CCS [ethanethiol] | 0.0023 |
| CCCCCS [1-pentanethiol] | 0.00087 |
| CCCSCCC [dipropyl sulfide] | 0.0033 |
| CC(C)SC(C)C [di-(2-propyl)-sulfide] | 0.003 |
| CCSCC [diethyl sulfide] | 0.0047 |
| CCSSCC [diethyl disulfide] | 0.004 |
| CCCCCCS [1-hexanethiol] | 0.00052 |
